Test: logP determination by HPLC on reversed-phase column (C 18), EEC Directive 79/831 Annex V.A8
Format: physicochemical
Conditions: reversed-phase HPLC column (C 18); at pH=2.3; acid range eluents 0.1% aqueous phosphoric acid/acetonitrile; 43° C.
Method: The determination of the logP value given in Example 1 was carried out according to EEC Directive 79/831 Annex V.A8 by HPLC (High Performance Liquid Chromatography) using a reversed-phase column (C 18). Temperature: 43° C. (a) Eluents for determination in the acid range: 0.1% aqueous phosphoric acid, acetonitrile; linear gradient from 10% acetonitrile to 90% acetonitrile—corresponding measurements are marked in Table 1 by ^a). (b) Eluents for determination in the neutral range: […] aqueous phosphate buffer solution, acetonitrile; linear gradient of 10% acetonitrile to 90% acetonitrile—corresponding measurements are marked in Table 1 by ^b). Calibration was carried out using unbranched alkan-2-ones (having from 3 to 16 carbon atoms), whose logP values are known (determination of logP values using the retention times by linear interpolation between two consecutive alkanones).

| chromatographic logP | SMILES |
| --- | --- |
| 2.41 | Nn1c(C(F)(F)F)cc(=O)n(-c2ccc(Br)cc2F)c1=O [Example 1, 1-amino-3-(4-bromo-2-fluorophenyl)-6-trifluoromethyl-2,4-(1H,3H)-pyrimidinedione] |
| 2.82 | CCS(=O)(=O)N(C(=O)c1ccccc1)c1cc(-n2c(=O)cc(C(F)(F)F)n(N)c2=O)c(F)cc1C#N [Example 8, N-benzoyl-N-[2-cyano-5-(3-amino-2,6-dioxo-4-trifluoromethyl-3,6-dihydro-1-(2H)-pyrimidinyl)-4-fluorophenyl]ethanesulphonamide] |

— US20030032807A1, “Method for the production of 1-amino -3-aryl -uracils” (priority 2000, published 2003)
